Key:
[1] = tested on: rat primary cerebellar neurons (CBN); test: Neurite length of cerebellar neurons in in vitro hypoxia condition; type: cell-based; conditions: hypoxia 24 hours, then treatment for additional 24 hrs
Description: To generate hypoxia condition as a SCI model in vitro, rat primary cerebellar neurons (CBN) were isolated from P3 pubs and plated on the PLL/Laminin coated well plate. After 3 days culture, the cells were incubated in hypoxia gas chamber (95% N2 and 5% 02) for 24 hours and then the cells were treated with Rm-PgP and PgP without rolipram. Cells treated with free rolipram dissolved in DMSO were used as a positive control and cells maintained under normal atmospheric conditions were used as a negative control. The cells were incubated an additional 24 hrs in hypoxia condition and then fixed for neurite length evaluation. The neurite lengths were measured using ImageJ software program after β-3 tubulin staining.

[2] = Sirolimus and heparin loading in PgP micelles; type: physicochemical; conditions: 0.45 μm filter
Description: 50 μl Hep-F (20 mg/ml) was added into PgP solution, followed by two more hours stirring. Methanol was allowed to evaporate overnight, and the solution was centrifuged at 15,000×RCF for 15 minutes. Supernatant containing unbound Hep-F was removed and the precipitated nanoparticle was collected, resuspended and then filtered using 0.45 μm sterile syringe filter to remove unloaded SR. The amount of Hep-F binding to PgP was measured using Hep-F standard curve. Fluorescence was measured using a microplate reader (Excitation: 494 nm Emission: 521 nm, Biotek, VT, USA). Loading efficiency for Hep was calculated as % loading efficiency=(amount of Hep bound to PgP/amount of Hep added to PgP)×100.
Sr-PgP-Hep was prepared sequential loading of SR and Hep in PgP. Briefly, SR solution (LC labs, USA) was loaded in the PgP using solvent evaporation method and Hep was added into SR-PgP solution. […] The amount of SR loaded in PgP micelles solution was measured by High Pressure Liquid Chromatography (HPLC) (Waters Corporation, USA) using SR standard curve prepared in acetonitrile (ACN). […] The loading efficiency was calculated as: % loading efficiency=amount of SR loaded/amount of SR added ×100. The amount of Hep bound to PgP was determined based on Hep-F loading as described above.

Row | Structure (SMILES) | neurite length compared with normoxia [1] | SR added in water without PgP, detection by HPLC after filtration [2]
1 | COc1ccc(C2CNC(=O)C2)cc1OC1CCCC1 (centres unmarked) [free Rm, rolipram] | not significantly different | 
2 | CO[C@H]1C[C@@H]2CC[C@@H](C)[C@@](O)(O2)C(=O)C(=O)N2CCCC[C@H]2C(=O)O[C@H]([C@H](C)C[C@@H]2CC[C@@H](O)[C@H](OC)C2)CC(=O)[C@H](C)/C=C(\C)[C@@H](O)[C@@H](OC)C(=O)[C@H](C)C[C@H](C)/C=C/C=C/C=C/1C [sirolimus] |  | not detected

Reference: patent US11633355B2, “Multi-functional particles and methods of using the same” (Clemson University Research Foundation, priority 2014, dated 2023)
